Experimental data published in patent US20240181068A1, “SELECTIVE NEUTRAL PH INHIBITOR OF CATHEPSIN B” (The Regents of the University of California, priority 2021, published 2024).

Legend:
cathepsin B = target: T1, cathepsin B (Homo sapiens, UniProt P07858); assay: Cathepsin B inhibitor kinetic characterization, fluorogenic assay with Z-Phe-Arg-AMC; format: biochemical; conditions: for reduction of cathepsin B activity: 64 nM inhibitor; for kinact/KI / Ki / IC50: cathepsin B
T1 construct: purchased R&D Systems 953-CY-010
Experimental: Inhibitor kinetic characterization using fluorogenic assays for cathepsin B activity. Kinetic analyses of IC50, K1, kobs, and kinact/K1 values for Z-Arg-Lys-AOMK and Z-Glu-Lys-AOMK inhibition of cathepsin B were conducted by fluorogenic proteolytic assays consisting of 40 μM Z-Phe-Arg-AMC, 40 mM citrate phosphate at pH 7.2 or pH 4.6, 1 mM EDTA, 100 mM NaCl, 5 mM DTT, and 0.01% Tween 20; assays were performed at room temperature (22-27° C.) in quadruplicate. Inhibitor and substrate were combined in the reaction well, and the assay was started upon addition of cathepsin B (0.04 ng/μL). The inhibitor concentration ranged from 5.5 μM to 1.1 nM (1.5-fold serial dilution). A vehicle control assay contained 2% DMSO instead of inhibitor. Enzyme velocity (RFU/sec) was measured during a […] incubation period as relative fluorescent units per sec (RFU/s), calculated using the highest slope recorded for 10 consecutive readings taken at 46 sec intervals (thus, activity is calculated over a total of 460 sec). Prism software was used to analyze enzyme activity data in kinetic studies. IC50 values were calculated (without preincubation of inhibitor and enzyme) as the concentration of inhibitor that reduced cathepsin B activity by 50%.
For determination of K1 and kinact/K1 kinetic inhibition constants, kobs constants were determined by plots of cathepsin B activity in time courses with different inhibitor concentrations by curve fitting slope data of RFU versus time into Y=Y0*e^(−kobs*^X), where Y0 is the activity for the control with no inhibitor condition, Y is the activity in the presence of inhibitor, X is time. K1 and kinact values were calculated from curve fitting the kobs values into the equation kobs=kinact*[I]/(K1+[I]), where [I] is inhibitor concentration, and K1 is the x-axis inhibitor concentration where y=kinact/2 and kinact is the maximum rate of inactivation at saturating inhibitor concentrations (93, 94). These kinetic analyses are for irreversible inhibitors, Z-Arg-Lys-AOMK and Z-Glu-Lys-AOMK of this study, that utilize Ki values, rather than Ki values used for reversible inhibitors (93).

[1] = target: T2, cathepsin B in SHSY5Y human neuroblastoma cell homogenate (Homo sapiens, UniProt P07858); assay: Cathepsin B activity in neuroblastoma cell homogenates in presence of inhibitors; format: biochemical; conditions: inhibitor 1 μM, Z-Arg-Arg-AMC substrate, pH 5.5
T2 construct: endogenous in cells; host or cells: SH-SY5Y human neuroblastoma cells
Experimental: Cathepsin B in human neuroblastoma cells treated with inhibitors. Neuroblastoma cells (human SHSY5Y) were grown in media consisting of 50% MEMalpha, 50% F12-K, 10% heat-inactivated FBS at 37° C. in an atmosphere of 95% air and 5% CO2. Firstly, cell homogenates were prepared by collection of cells in 0.32 M sucrose and freeze-thawing. Secondly, cells were incubated with Z-Arg-Lys-AOMK or CA-074Me for 6 hours at 37° C., and washed 3 times in phosphate-buffered saline and homogenates were prepared in 0.32 M sucrose with freeze-thawing. CA-074Me is a methyl ester form of the active CA-074 selective inhibitor of cathepsin B (70); CA-074Me penetrates the cell and is converted by intracellular esterases to CA-074.
Cathepsin B activity in the homogenates were monitored with Z-Arg-Arg-AMC substrate (60 μM) with buffer conditions of 40 mM citrate-phosphate, pH 5.5, 5 mM DTT, 1 mM EDTA, 100 mM NaCl, and 1.2% DMSO, followed by incubation at 37° C. for 30 minutes and reading of AMC fluorescence. CA-074-senstive activity was monitored to indicate cathepsin B activity, since CA-074 is a selective inhibitor of this enzyme (70). Protein content was measured in homogenates with the DC protein assay kit. Cathepsin B specific activity was calculated as nmol AMC/μg/min, and reported as the mean±SD (with analyses for statistical significance, p<0.05 by student's t-test).

- reduction of cathepsin B activity (cathepsin B; pH 4.6, Z-Phe-Arg-AMC substrate): 5%
- reduction of cathepsin B activity (cathepsin B; pH 7.2, Z-Phe-Arg-AMC substrate): 93%
- kinact/KI (cathepsin B; pH 4.6): 1800 M⁻¹ s⁻¹
- Ki (cathepsin B; pH 4.6, irreversible inhibitor): 15000 nM
- IC50 (cathepsin B; pH 4.6, without preincubation): 1500 nM
- IC50 (cathepsin B; pH 6.8 (data not shown)): 22 nM
- kinact/KI (cathepsin B; pH 7.2): 110000 M⁻¹ s⁻¹
- Ki (cathepsin B; pH 7.2, irreversible inhibitor): 130 nM
- IC50 (cathepsin B; pH 7.2, without preincubation): 20 nM
- inhibition of proteolytic (cathepsin B) activity in cell lysate [1]: completely inhibited
Compound: Cc1cccc(C)c1C(=O)OCC(=O)C(CCCCN)NC(=O)C(CCCNC(=N)N)NC(=O)OCc1ccccc1 (stereo not drawn) [Z-Arg-Lys-AOMK]
